What all share (assay type): in vivo
Assay [1] concerns gram+bacterial infection on the skin. The experiment in a line: Treating a topical infection in a human. The note with it: 2.5% cream applied twice daily, after about 4 days. From the text:
A 50 kg person is diagnosed by a dermatologist with a gram+bacterial infection on the skin of their left foot. They prescribed a 2.5% cream of 5-bromo-2-[[(2E)-3-(2-naphthalenyl)-1-oxo-2-butenyl]amino]benzoic acid which they applied twice daily.

For the next assay, the system named is badly infected wound. The experiment in a line: Treating a systemic infection in a dog (infected wound). As to conditions: 15 kg dog, 300 mg twice a day mixed in food. The method, then: A 15 kg dog with a badly infected wound is given 300 mg twice a day mixed in his food of trans-3-(naphth-2-yl)-but-2-enoic acid-N-(2-carboxyphenyl)amide. After 2 days the wound looks better and after 5 days it is almost healed.

The subject of another assay is S. aureus. Briefly: Treating a systemic infection in a human. The note with it: two 300 mg tablets three daily. The method, then:
A 70 kg person has a 102° fever and a bad cough. An internist diagnoses their problem as a systemic gram+bacterial infection of S. aureus. They prescribe trans-3-(naphth-2-yl)but-2-enoic acid-N-(2-carboxyphenyl)amide with the directions to take two 300 mg tablets three daily which the patient does.

As to `C/C(=C\C(=O)Nc1ccc(Br)cc1C(=O)O)c1ccc2ccccc2c1` [5-bromo-2-[[(2E)-3-(2-naphthalenyl)-1-oxo-2-butenyl]amino]benzoic acid], in assay [1], the “appearance of the skin” value is “appears normal” and the “gram+bacterial infection on the skin of the foot” value is “the infection was gone”.

Consider `C/C(=C\C(=O)Nc1ccccc1C(=O)O)c1ccc2ccccc2c1` [trans-3-(naphth-2-yl)-but-2-enoic acid-N-(2-carboxy-phenyl)-amide], for which the “appearance of the infected wound” value in the assay with badly infected wound (after 2 days) is listed as “looks better”. Besides, the “healing of the infected wound” value in the assay on badly infected wound (after 5 days) is “almost healed”. Further, in the assay on S. aureus (after five days), the cough result is “cough is gone” and the temperature entry was “temperature is normal”. Also, the fever entry in the assay with S. aureus (after two days) is recorded as “the fever comes down”.

The values above are taken from patent publication US20110054034A1, “METHODS OF USING […] AS ANTIMICROBIAL AGENTS” (priority 2008, published 2011).
